Data taken from US20260375094A1, “Disinfectant Compositions” (ARXADA, LLC, priority 2022, published 2026).

What was measured:
Assay type in all cases: cell-based
[1] = tested on: Pseudomonas aeruginosa (ATCC 15442); assay: EN1276 suspension test, dirty condition, 5 minutes; details: for Log Reduction: no polyethertriamine, with 5.00 disodium cocoamphodiproprionate, 15.00 isopropyl alcohol, 5 minutes
Experimental: In particular, varying amounts of para-chloro-metal-xylenol (PCMX) were combined and tested with and without different adjuvants of the present disclosure.
In this example, the same polyethertriamine described in Example No. 1 was used. The disodium cocoamphodiproprionate used was Amphoterge® K-2 obtained from Arxada AG. The methylglycinediacetic acid used was Trilon® M obtained from BASF Corporation.
In tables 9 and 10, antimicrobial efficacy was evaluated according to the EU Standard EN1276 method against Pseudomonas aeruginosa (ATCC 15442) for a contact time of 5 minutes in dirty condition. Test compounds were diluted in hardwater with a total hardness of 375 ppm as CaCo3 pursuant to the Organization for Economic Co-operation and Development (OECD) and used within 2 hours of preparation. The test inoculum was adjusted to the concentration of 1.5-5×10^8 colony forming units (CFU) in Tryptone Sodium Chloride buffer (TSC, 1.0 g tryptone, 8.5 g NaCl, 1 L H2O). For the challenge test, 1 ml of the test inocula was mixed with 1 ml of Bovine Serum Albumin (final concentration 3 g/L) and held for 2 minutes before it was exposed to 8 mL of test compound. The test suspension was then mixed and held for the contact time of 5 minutes at 20±1 °C. At the end of the exposure time, 1 ml of the test mixture was transferred to a tube containing 9 ml neutralizing solution and held for 5 minutes before it was serially diluted and plated onto TSA plates. The plates were incubated at 37 °C for 48 hours before the numbers of CFU per ml in the test suspensions relative to the controls were calculated. Test and control procedures were performed in duplicate and carried out in parallel with the neutralization validation controls, as described in the standard.

[2] = tested on: Staphylococcus aureus; assay: glass slide carrier spray disinfection test, Staphylococcus aureus; details: 75 ppm antimicrobial agent, no polyethertriamine; 10 minutes contact time
Experimental: (§1) In this example, Pseudomonas aeruginosa or Staphylococcus aureus were dried on glass slides and then sprayed with disinfectant compositions prepared according to the present disclosure. The organism load on the slide was controlled between 5 and 6 log 10 (equals to 10^5 to 10^6 organisms). The spray bottle containing the disinfectant was placed 4 inches away from the carrier and five sprays were applied. After 10 minutes contact time, the carriers are aseptically transferred to 20 ml of letheen broth (neutralizer/growth media). These letheen broth tubes with the carriers are then incubated at 37±1 °C for 48 hours. After 48 hours, a cloudy letheen tube indicates growth or failure and a clear tube indicates no growth or pass.
(§2) The polyethertriamine used was JEFFAMINE T403 polyetheramine obtained from Huntsman Corporation of Houston, Texas.
(§3) In the example below, the alkyl dimethyl benzyl ammonium chloride contained a mixture of 50% by weight C14, 10% by weight C16, and 40% by weight C12 dimethyl benzyl ammonium chloride.
(§4) In the table below, PHMB stands for polyhexamethylene biguanide.

[3] = tested on: Pseudomonas aeruginosa; assay: glass slide carrier spray disinfection test, Pseudomonas aeruginosa; details: 75 ppm antimicrobial agent, no polyethertriamine; 10 minutes contact time
Experimental: as §1, §2, §3, §4

[4] = tested on: Klebsiella pneumoniae; assay: modified EN 1040 suspension test, Klebsiella pneumoniae; details: 1.25 ppm antimicrobial agent, 60 seconds
From the text: (§5) In particular, various antimicrobial agents and mixtures were combined and tested with and without the adjuvant of the present disclosure.
(§6) In this example, the same polyethertriamine described in Example No. 1 was used. In addition, the alkyl dimethyl benzyl ammonium chloride was the same mix as described in Example No. 1. The alkyl dimethyl ammonium chloride mix used in the samples below contained 40% by weight of octyl decyl dimethyl ammonium chloride, 16% by weight dioctyl dimethyl ammonium chloride, and 24% by weight of didecyl dimethyl ammonium chloride.
(§7) The modified EN 1040 suspension test was used to determine the efficacy of the test systems. The testing was performed for a contact time of 60 seconds in comparison to an identical composition not containing the adjuvant but containing the antimicrobial agent at the same concentration. Bacteria were stored at −80 °C using Microbank™ beads (Prolab diagnostics). Cultures were prepared in 250 mL baffled shake flasks with 25 mL of Tryptic Soy Broth (TSB) using one bead. After 18+/−8 hours incubation at 37 °C and 150 rpm, the inocula are prepared for the test.
(§8) The inocula were prepared by diluting the bacteria to 2.5×10^6 CFU/mL in phosphate buffered saline (PBS). Test compounds are prepared in DI water. Three levels of each test compound were prepared by serial two-fold dilution in the same hardwater. For each biological repetition, the test compounds were tested at 3 levels in quadruplicate with one quadruplicate control with no test compound.
The varying compositions were then mixed with the inocula in an 80:20 (test composition: inocula) ratio. After 60 seconds, the test composition/inocula mixture was neutralized by a 10-fold dilution in Letheen broth. […]
(§9) The average log reduction was calculated using the six dilutions.
Various different formulations were tested against Klebsiella pneumoniae and Pseudomonas aeruginosa. […] The average log reduction was recorded in addition to the difference in log reduction between the formulation containing the polyethertriamine and the formulation not containing the polyethertriamine.

[5] = tested on: Pseudomonas aeruginosa; assay: modified EN 1040 suspension test, Pseudomonas aeruginosa; details: 1.25 ppm antimicrobial agent, 60 seconds
From the text: as §5, §6, §7, §8
The varying compositions were then mixed with the inocula in an 80:20 (test composition: inocula) ratio. After 60 seconds, the test composition/inocula mixture was neutralized by a 10-fold dilution in Letheen broth. After neutralization of the test composition/inocula mixture, five more 10-fold dilutions were made. The six dilutions were incubated at 35 °C for 24 h+/−1 h. Neutralization was verified separately.
as §9
Various different formulations were tested against Klebsiella pneumoniae and Pseudomonas aeruginosa. The antimicrobial concentrations were tested at 5 ppm, 2.5 ppm, and 1.25 ppm. The antimicrobial blends were mixed at the indicated ratios by weight percent. The formulations were tested with and without the polyethertriamine (PEA). The polyethertriamine was added at weight ratios of 20:1, 40:1, 80:1, and 200:1 with respect to the antimicrobial agent(s). The average log reduction was recorded in addition to the difference in log reduction between the formulation containing the polyethertriamine and the formulation not containing the polyethertriamine.

Structure (SMILES)	Log Reduction ([1]; 0.50% para-chloro-meta-xylenol, 1:5 dilution (1000 ppm)) [log]	Log Reduction ([1]; 1.00% para-chloro-meta-xylenol, 1:5 dilution (2000 ppm)) [log]	performance in presence of the adjuvants ([1]; Example No. 3)	# Fails out of 10 [2]	# Fails out of 10 [3]	Average Log Kill ([4]; 0 ppm PEA) [log]	Delta Log Kill ([4]; 250 ppm PEA vs 0) [log]	Average Log Kill ([4]; 250 ppm PEA) [log]	Average Log Kill ([5]; 0 ppm PEA) [log]	Delta Log Kill ([5]; 100 ppm PEA vs 0) [log]	Average Log Kill ([5]; 100 ppm PEA) [log]	Delta Log Kill ([5]; 250 ppm PEA vs 0) [log]	Average Log Kill ([5]; 250 ppm PEA) [log]
Cc1cc(O)cc(C)c1Cl [Para-chloro-meta-xylenol, 4-chloro-3,5-dimethylphenol]	0.83	2.56	dramatically improved the performance										
N=C(NCCCCCCNC(=N)NC(=N)Nc1ccc(Cl)cc1)NC(=N)Nc1ccc(Cl)cc1 [Chlorohexidine]				10 out of 10	10 out of 10								
CCCCCCCCCC[N+](C)(C)CCCCCCCCCC.[Cl-] [didecyl dimethyl ammonium chloride]				1 out of 10	9 out of 10	0.46	1.38	1.83	1.58	0.92	2.50	0.29	1.88
